Measurements published in article PMC6949951, “α-Glucosidase Inhibition and Molecular Docking Studies of Natural Brominated Metabolites from Marine Macro Brown Alga Dictyopteris hoytii” (Marine Drugs, 2019).
Where two headings read alike, the source gives them in different places.

Target: α-Glucosidase (E.C.3.2.1.20) enzyme (Saccharomyces cerevisiae) (Saccharomyces cerevisiae, UniProt P53341)
Assay: biochemical
Assay type: biochemical
Description: α-Glucosidase (E.C.3.2.1.20) enzyme (Saccharomyces cerevisiae) inhibition activity was carried out by using previously described method. The enzyme (0.2 μ/mL) solution in phosphate buffered saline (PBS) (0.1 M, pH 6.8) with different concentrations of tested compounds (1, 0.5, 0.25, 0.125, 0.0625 and 0.0312 mM) at 37 °C were incubated for 15 min. After incubation, 0.7 mM p-nitrophenyl-α-D-glucopyranoside (a chromogenic substrate) was added and the change in absorbance was recorded at 400 nm for 30 min by microplate spectrophotometer (xMark™, BIO-RAD, California, LA, United States) per production of p-nitrophenyl. Al the isolated compounds were dissolve in DMSO (7.5% final) along with control. […] The IC50 values were calculated by using different concentrations of tested compounds. The results were processed by MS-Excel and Ez-fit software programs. The % inhibition was calculated by using the following formula:% Inhibition = 100 −(OD test well/OD control) × 100.

[1] = α-Glucosidase inhibitory activity IC50, tested up to 1.0 mM, PBS pH 6.8, 37 °C, NA = not active
[2] = IC50 (Table 2, repeated beside docking results), S. cerevisiae α-glucosidase
[3] = S. cerevisiae α-glucosidase, read-out: IC50 (Table 2, repeated beside docking results)
[4] = tested up to 1.0 mM, PBS pH 6.8, 37 °C, NA = not active, read-out: α-Glucosidase inhibitory activity IC50

Chain of α-Glucosidase (E.C.3.2.1.20) enzyme (Saccharomyces cerevisiae) (P53341 whole entry): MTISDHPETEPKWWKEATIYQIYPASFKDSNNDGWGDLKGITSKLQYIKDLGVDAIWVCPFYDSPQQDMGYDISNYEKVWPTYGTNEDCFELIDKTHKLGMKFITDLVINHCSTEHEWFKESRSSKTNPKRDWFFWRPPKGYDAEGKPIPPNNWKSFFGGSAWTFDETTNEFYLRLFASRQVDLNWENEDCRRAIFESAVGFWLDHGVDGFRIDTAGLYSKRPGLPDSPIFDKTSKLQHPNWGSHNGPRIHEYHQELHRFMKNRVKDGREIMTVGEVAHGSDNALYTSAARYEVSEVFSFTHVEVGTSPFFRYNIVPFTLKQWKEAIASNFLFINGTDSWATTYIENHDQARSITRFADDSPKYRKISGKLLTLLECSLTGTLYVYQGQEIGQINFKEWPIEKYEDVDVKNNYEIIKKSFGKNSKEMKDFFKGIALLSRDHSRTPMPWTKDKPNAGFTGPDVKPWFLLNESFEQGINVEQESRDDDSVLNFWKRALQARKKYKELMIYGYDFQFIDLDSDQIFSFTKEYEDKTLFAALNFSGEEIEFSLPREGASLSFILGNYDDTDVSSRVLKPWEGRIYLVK

Row | Compound | IC50 [1] [µM] | IC50 [4] [µM] | further results
1 | CCOC(=O)c1ccc(C(=O)OCC)c(Br)c1 [Compound 2, Diethyl 2-bromobenzene 1,4-dioate] | ~234 | – | IC50: 234 µM
2 | C/C=C(\CC[C@@H](C)[C@H]1CC[C@H]2[C@@H]3CC=C4C[C@@H](O)CC[C@]4(C)[C@H]3CC[C@]12C)C(C)C [Compound 3, Fucosterol] | 289 ± 4.91 | – | IC50 [2]: 289 µM
3 | CCCCCCCCCCCCCCCC(=O)OC [Compound 4, n-Hexadecanoic acid, methyl ester] | – | – | α-glucosidase inhibition in words (in vitro): inactive
4 | CCCCCCCCCCCCCCCCCCCCCCCCCC(=O)O [Compound 6, Cerotic acid] | – | 659.8 ± 2.15 | IC50 [3]: 660 µM
5 | CCCCCCCCCCCCCCCCCCC=CCCCCCCCC(=O)O [Compound 7, n-Octacos-9-enoic acid] | – | 30.5 ± 0.41 | –
6 | CCCCCCCCC=CCCCCCCCCCC(=O)O [Compound 8, 11-Eicosenoic acid] | 480 | – | IC50 [2]: 480 µM
7 | Ethyl methyl 2-bromobenzene 1,4-dioate [Compound 1] | – | 522 ± 0.51 | IC50 [3]: 522 µM
